Test results reported in patent US8569242B2, “Method of treating degenerative disorders of the nervous system” (The Regents of the University of California, priority 2005, dated 2013).
“Also recorded” adds a separate entry of the source.

Columns and labels:
[1] = test system: splenocytes; test: FACS analysis of splenocytes for peripheral immune cell markers; format: in vivo, mouse; settings: peptide-treated vs untreated PLP139-151 immunized mice, day 29
Description: FACS Analysis. Primary mouse splenocytes were isolated from control and γ^377-395 peptide-treated mice, immunized with PLP139-151, on day 29 after immunization. Cells were immunostained with antibodies to CD4, CD8, CD11b, CD11c, CD19, B220 (1:100, Biolegend, San Diego, Calif.) and analyzed on a Becton Dickinson FACSCalibur flow cytometer.

[2] = test system: primary microglia; test: Morphometry of microglia activation (Isolectin B4 staining, cell size); format: cell-based, mouse; settings: for effect on LPS-mediated microglia activation: LPS 1 μg/mL
Description: Culture of primary microglia cells. Microglia were isolated from cultures of mixed cortical cells as described (59). In brief, cortices from P1 mice were isolated and digested with trypsin (0.4%) for 20 minutes at 37° C. Cells from 4 pups were plated onto PDL-coated 75 cm2 tissue-culture flasks. The culture medium (DMEM, 10% heat-inactivated FBS, and 1% Pen/Strep) was changed on day 2. After 2-3 weeks in culture, the microglia were removed by the addition of 12 mM lidocaine (Sigma-Aldrich, St. Louis, Mo.) and orbital shaking (180 rpm) for 20 minutes at 37° C. The cells were centrifuged (350×G) and the pellet was resuspended in complete medium and plated onto PDL-coated tissue culture dishes. Microglia cell cultures were >95% pure as determined with three different markers, IsoB4, IBA-1 and CD11b. To immobilize fibrinogen, tissue culture dishes were incubated overnight with 50 μg/mL fibrinogen (Calbiochem, San Diego, Calif.) in 20 mM Tris (pH 7.5) and 0.1 M NaCl at 37° C. for all fibrinogen treatments. To serve as positive controls, LPS (Sigma-Aldrich, St. Louis, Mo.) was added to the media at 1 μg/mL.
Morphometry. Primary microglia were used for all morphologic analysis. Cells were plated on coated fibrinogen or in the presence of LPS for 72 hours. Microglia were fixed with methanol and immunostained with Isolectin B4 (1:300, Sigma-Aldrich, St. Louis, Mo.). Activated microglia were quantificated as those cells larger than 2,000 μm^2. Blocking experiments involved the daily administration of rat anti-CD11b (10 μg/mL, eBioscience, San Diego, Calif.), γ^377-395 peptide (200 μM) or rat IgG (10 μg/mL, Jackson ImmunoResearch Laboratories, West Grove, Pa.). Results were obtained from six separate experiments performed in duplicates. 250 cells per condition were counted for each individual experiment. Statistical calculations were made by using Student's t test.

[3] = test system: PLP139-151 EAE in SJL/J mice; test: Remitting-relapsing PLP139-151 EAE, intranasal γ^377-395 peptide after first paralytic episode; format: in vivo, mouse
Description: Induction of EAE. EAE was induced in 6 week old female SJL/J or C57BL/6 mice by subcutaneous immunization with 150 μg PLP139-151 (HSLGKWLGHPDKF) (SEQ ID NO: 5). American Peptide Company and Azco Pharmchem, San Jose, Calif.) or 50 μg MOG35-55 ([…]) (SEQ ID NO: 6), Sigma-Aldrich, St. Louis, Mo.) in complete Freund's adjuvant (Sigma-Aldrich, St. Louis, Mo.) supplemented with […] heat inactivated mycobacterium tuberculosis H37Ra (Difco Laboratories, Detroit, Mich.). Mice were injected intravenously with 200 ng pertussis toxin (Sigma-Aldrich, St. Louis, Mo.) on days 0 and 2 of the immunization. Mice were scored daily. 0: no symptoms, 1: loss of tail tone, 2: ataxia, 3: hindlimb paralysis, 4: hindlimb and forelimb paralysis, 5: moribund Data are represented as the mean clinical score and are mean±SEM. Statistical calculations were made by using Student's t test.
Intranasal γ^377-395 peptide administration. Fibrinogen γ^377-395 peptide (YSMKETTMKIIPFNRLSIG) (SEQ ID NO: 2), Azco Pharmchem, San Jose, Calif.) was resuspended in 0.9% NaCl at a concentration of 3 mg/mL. Peptides were aliquoted as single doses and stored at […]. Mice were administered 5 μL of peptide or 0.9% NaCI, as a control, in each nare daily using a P10 micropipettor (Gilson, Middleton, Wis.) beginning after the peak of the first paralytic episode.
Histopathology. Histopathologic analysis and quantification of inflammation and demyelination in mouse tissue was performed on cryostat or paraffin sections as described (57). Sections were stained with luxol fast blue and nuclear red. Spinal cord sections were fixed with 2% PFA for 10 minutes at 4° C. and immunostained with a sheep anti-fibrinogen antibody (1:200, US Biological, Swampscott, Mass.), rat anti-CD11b (1:5, Chemicon), von Willebrand Factor (1:1000, Dakocytomation, Glostrup, Denmark), iNOS (polyclonal Chemicon, Temecula, Calif., 1:750), Mac-3 (rat-anti-mouse, Pharmingen, San Diego, Calif., 1:200), CNPase (monoclonal, Sternberger monoclonals, Lutherville, Md., 1:2000). For human MS, paraffin embedded material was obtained from the Archives of the Center for Brain Research, Medical University of Vienna. Double immunofluorescence was performed with antibodies against CD68 and fibrin. Images were collected using an Axioplan 2 Zeiss microscope with an Axiocam HRc camera or were processed for confocal microscopy using Olympus and Zeiss confocal microscopes.
Rotarod behavior test. The rotarod assay was performed on a TSE accelerating Rotarod apparatus (TSE Technical and Scientific Equipment GmbH) as described (58). Rotarod assays were conducted with a 300 second maximum time limit and means were collected for at least three trials. Statistical calculations were made by using Students t test.

[4] = test system: Mac-1 overexpressing cells; settings: reference (37); cited from earlier work
[5] = 30 μg i.n. daily, day 30 after immunization

Substance: tyr-ser-met-lys-lys-thr-thr-met-lys-ile-ile-pro-phe-asn-arg-leu-thr-ile-gly (YSMKKTTMKIIPFNRLTIG) (listed as Homo sapiens) [γ^377-395 peptide]
- peripheral immune cells (CD4, CD8, CD11b, CD11c, CD19, B220) in splenocytes [1]: did not reveal any differences; also recorded: no significant effect
- effect on LPS-mediated microglia activation [2]: did not inhibit
- effect on LPS-mediated microglia activation ([2]; listed as γ^377-395): has no effect
- % of activated microglia in fibrinogen treated cells in the presence of blocker ([2]; M1/70 10 μg/mL or γ^377-395 peptide 200 μM daily, fibrinogen alone 71±4.9%): 38.3±9.8%
- fibrinogen-induced morphologic activation of microglia (in words) ([2]; added to microglia on immobilized fibrinogen): attenuated
- effect on activation state of untreated microglia ([2]; peptide 200 μM): did not affect
- increase of motor functions vs control mice ([3]; 30 μg i.n. daily, after the first relapse on day 29): 1.4 fold
- reduction in Mac-3 (microglia/macrophage marker) immunostaining [3, 5]: 2 fold
- reduction in iNOS immunostaining [3, 5]: 4.2 fold
- relapse of paralysis (clinical score) ([3]; 30 μg intranasally daily after first paralytic episode, n=14 vs control n=13): did not show a relapse
- T cell infiltration ([3]; peptide-treated vs control): no major differences
- concentration shown to inhibit adhesion of Mac-1 overexpressing cells to immobilized fibrinogen [4]: 200 µM
